Drawing on patent US20250066369A1, “BICYCLIC PHTHALAZIN-1(2H)-ONE DERIVATIVES AND RELATED USES” (NodThera Limited, priority 2022, published 2025), this text covers IC50 for five compounds.

A word on the IC50: it is the point on the concentration scale where inhibition reaches its midpoint. A higher IC50 goes with weaker potency in that assay.

The assay relates to IL-1β release upon NLRP3 activation in peripheral blood mononuclear cells (PBMC). The assay can be described thus: PBMC IC50 determination assay: inhibition of IL-1β release upon NLRP3 activation. Type of assay: cell-based. The settings on record: PBMC, PBMC primed with LPS 3 h, compound 30 min, stimulated with ATP (5 mM) or nigericin (10 μM) 1 h; IL-1β by ELISA (Protocol A) or HTRF (Protocol B). The essentials: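 Human PBMC from buffy coats were primed 3 h with LPS (1 μg/mL in Protocol B), given compound for 30 min, then stimulated 1 h with ATP (5 mM) or nigericin (10 μM; Protocol A only). Released IL-1β was quantified by ELISA at 450 nm (Protocol A) or HTRF at […] (Protocol B).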
`CCNc1cc2c(C(C)C)nn(C3(C(=O)Nc4ncccn4)CC3)c(=O)c2s1` [Compound 110, 1-[2-(Ethylamino)-7-oxo-4-(propan-2-yl)-6H,7H-thieno[2,3-d]pyridazin-6-yl]-N-(pyrimidin-2-yl)cyclopropane-1-carboxamide] displayed an IC50 of 3000 to 10000 nM.
With `CCn1cc2c(=O)n(CC(=O)Nc3ncncc3F)nc(C(C)C)c2n1` [Compound 5, 2-(2-Ethyl-7-isopropyl-4-oxo-pyrazolo[3,4-d]pyridazin-5-yl)-N-(5-fluoropyrimidin-4-yl) acetamide], the concentration for half-maximal inhibition (IC50) was 1000 to 3000 nM.
The compound `CCNc1cc2c(=O)n(CC(=O)Nc3ncccn3)nc(C(C)C)c2o1` [Compound 102, 2-[2-(Ethylamino)-4-oxo-7-(propan-2-yl)-4H,5H-furo[2,3-d]pyridazin-5-yl]-N-(pyrimidin-2-yl)acetamide] gave an IC50 of 100 to 1000 nM.
In the case of `CCc1nn(CC(=O)Nc2ncc(F)cn2)c(=O)c2ccc(C3CC3)nc12` [Compound 33, 2-(2-Cyclopropyl-8-ethyl-5-oxo-pyrido[2,3-d]pyridazin-6-yl)-N-(5-fluoropyrimidin-2-yl)acetamide], the IC50 was in the range of 100 to 1000 nM.
Consider `Cc1nc(NC(=O)Cn2nc(C(C)C)c3nc(C4CC4)ccc3c2=O)ns1` [Compound 26, 2-(2-Cyclopropyl-8-isopropyl-5-oxo-pyrido[2,3-d]pyridazin-6-yl)-N-(5-methyl-1,2,4-thiadiazol-3-yl)acetamide], for which the IC50 lay in the range of 100 to 1000 nM.
